The subject of one data set is human Factor 11 mRNA. The data set is described as follows: Dose-dependent inhibition of human Factor 11 in HepG2 cells, electroporation 375-12,000 nM (Example 32). It is filed as cell-based. The note with it: for Percent inhibition of Factor 11 mRNA at 375 nM / Percent inhibition of Factor 11 mRNA at 750 nM / IC50: electroporation; for Percent inhibition of Factor 11 mRNA at 375 nM / Percent inhibition of Factor 11 mRNA at 750 nM / Percent inhibition of Factor 11 mRNA at 1,500 nM / Percent inhibition of Factor 11 mRNA at 3,000 nM / Percent inhibition of Factor 11 mRNA at 6,000 nM / Percent inhibition of Factor 11 mRNA at 12,000 nM: approx. 16 hours, relative to untreated control cells; for Percent inhibition of Factor 11 mRNA at 1,500 nM: electroporation, 1,500 nM; for Percent inhibition of Factor 11 mRNA at 3,000 nM: electroporation, 3,000 nM; for Percent inhibition of Factor 11 mRNA at 6,000 nM: electroporation, 6,000 nM; for Percent inhibition of Factor 11 mRNA at 12,000 nM: electroporation, 12,000 nM; for IC50: Factor 11 mRNA expression. Here is the method:
These gapmers were tested at various doses in HepG2 cells. Cells were plated at a density of 20,000 cells per well and transfected using electroporation with 375 nM, 750 nM, 1,500 nM, 3,000 nM, 6,000 nM and 12,000 nM concentrations of antisense oligonucleotide, as specified in Table 47. After a treatment period of approximately 16 hours, RNA was isolated from the cells and Factor 11 mRNA levels were measured by quantitative real-time PCR. Human Factor 11 primer probe set RTS 2966 was used to measure mRNA levels. Factor 11 mRNA levels were adjusted according to total RNA content, as measured by RIBOGREEN. Results are presented as percent inhibition of Factor 11, relative to untreated control cells.
ISIS 416850, ISIS 416858, ISIS 445522, and ISIS 445531 (see Table 45 above) were re-tested in vitro along with the microwalk gapmers under the same conditions described above.
The first two listed gapmers in Table 47 are the original gapmers (ISIS 416850 and ISIS 416858) from which the remaining gapmers were designed via microwalk and are designated by an asterisk.

For a further data set, the system named is Factor 11 protein. Briefly: Factor 11 protein in monkey plasma by sandwich ELISA (Example 46). It counts as in vivo, cynomolgus monkeys. The conditions noted are these: 25 mg/kg subcutaneously. Here is the method: (§1) Groups, each consisting of two male and two female monkeys, were injected subcutaneously with 25 mg/kg of ISIS 416850, ISIS 449709, ISIS 445522, ISIS 449710, ISIS 449707, ISIS 449711, ISIS 449708, 416858, and ISIS 445531. Antisense oligonucleotide was administered to the monkeys at 25 mg/kg three times per week for week 1 and 25 mg/kg twice per week for weeks 2 to 8. A control group, consisting of two male and two female monkeys was injected subcutaneously with PBS according to the same dosing regimen. Body weights were taken 14 days and 7 days before the start of treatment and were then measured weekly throughout the treatment period. Blood samples were collected 14 days and 5 days before the start of treatment and subsequently several times during the dosing regimen for PT and aPTT measurements, and measurement of various hematologic factors. On day 55, the monkeys were euthanized by exsanguination while under deep anesthesia, and organs harvested for further analysis.
Plasma samples from all monkey groups taken on different days were analyzed by a sandwich-style ELISA assay (Affinity Biologicals Inc.) using an affinity-purified polyclonal anti-Factor 11 antibody as the capture antibody and a peroxidase-conjugated polyclonal anti-Factor 11 antibody as the detecting antibody. Monkey plasma was diluted 1:50 for the assay. Peroxidase activity was expressed by incubation with the substrate o-phenylenediamine. The color produced was quantified using a microplate reader at 490 nm and was considered to be proportional to the concentration of Factor 11 in the samples.
The results are presented in Table 147, expressed as percentage reduction relative to that of the PBS control.

Data set [1] is described as follows: Viscosity of ISIS antisense oligonucleotides, micro-viscometer at 25 °C (Example 47). It counts as physicochemical. The conditions noted are these: for Concentration: concentration of the viscosity sample, UV reading at 260 nM at 85° C.; for Viscosity: in water, micro-viscometer at 25° C., at the concentration of the same line. Here is the method: The viscosity of antisense oligonucleotides targeting human Factor 11 was measured with the aim of screening out antisense oligonucleotides which have a viscosity more than 40 cP at a concentration of 165-185 mg/mL.
ISIS oligonucleotides (32-35 mg) were weighed into a glass vial, 120 μL of water was added and the antisense oligonucleotide was dissolved into solution by heating the vial at 50° C. Part of (75 μL) the pre-heated sample was pipetted to a micro-viscometer (Cambridge). The temperature of the micro-viscometter was set to 25° C. and the viscosity of the sample was measured. Another part (20 μL) of the pre-heated sample was pipetted into 10 mL of water for UV reading at 260 nM at 85° C. (Cary UV instrument).

The subject of a further data set is Factor 11 mRNA. The data set is described as follows: Factor 11 mRNA in cynomolgus monkey liver, day 55 (Example 46). It is filed as in vivo, cynomolgus monkeys. The conditions noted are these: 25 mg/kg subcutaneously, primer probe set LTS00301. The protocol:
as §1
On day 55, RNA was extracted from liver tissue for real-time PCR analysis of Factor 11 using primer probe set LTS00301. Results are presented as percent inhibition of Factor 11, relative to PBS control.

Strand notation (5' to 3'): a small letter for the sugar, then the base; units joined by * are phosphorothioate-linked, units joined directly phosphodiester-linked; [ ] holds rarer units or linkages, { } end groups; capitals alone tell only the bases. e = 2'-O-(2-methoxyethyl) (MOE); [5mC] = 5-methylcytosine; d = 2'-deoxy (DNA)

On to “449707 (antisense e[5mC]*eA*e[5mC]*eA*dG*dT*dT*dT*d[5mC]*dT*dG*dG*e[5mC]*eA*eG*eG) [compound 449707]”, for which the “Percent inhibition of Factor 11 mRNA at 375 nM” value (“Percent inhibition … at 375 nM” below) in the data set with human Factor 11 mRNA turned out to be 7%. Besides, the “Percent inhibition of Factor 11 mRNA at 750 nM” value (“Percent inhibition … at 750 nM” for short) in the data set on human Factor 11 mRNA came out at 35%. The “Percent inhibition of Factor 11 mRNA at 1,500 nM” value (from here on “Percent inhibition … at 1,500 nM”) in the data set on human Factor 11 mRNA worked out at 63%. Besides, the “Percent inhibition of Factor 11 mRNA at 3,000 nM” value (“Percent inhibition … at 3,000 nM” below) in the data set with human Factor 11 mRNA is 73%. In addition, the “Percent inhibition of Factor 11 mRNA at 6,000 nM” value (shortened to “Percent inhibition … at 6,000 nM”) in the data set on human Factor 11 mRNA was 85%. Also, the “Percent inhibition of Factor 11 mRNA at 12,000 nM” value (“Percent inhibition … at 12,000 nM” for short) in the data set on human Factor 11 mRNA came to 91%. The same substance had an IC50 in the data set with human Factor 11 mRNA of 1260 nM. In addition, the “Inhibition of Factor 11 protein relative to the PBS control (percentage reduction)” value was 16% in the data set with Factor 11 protein (Day 10, plasma); 19% in the data set on Factor 11 protein (Day 17, plasma); 21% in the data set with Factor 11 protein (Day 24, plasma); 29% in the data set with Factor 11 protein (Day 31, plasma); 28% in the data set on Factor 11 protein (Day 38, plasma); 35% in the data set on Factor 11 protein (Day 45, plasma). For the same substance, the “Inhibition of Factor 11 protein relative to the PBS control (percentage reduction)” value amounted to 29% in the data set with Factor 11 protein (Day 52, plasma); 32% with Factor 11 protein (Day 55, plasma); 0% in the data set on Factor 11 protein (Day −5, plasma); 0% in the data set on Factor 11 protein (Day −14, plasma). The same substance came in with a Concentration in data set [1] of 166 mg/mL. Further, the Viscosity in data set [1] worked out at 7 cP. In addition, in the data set on Factor 11 mRNA, the “% inhibition of Factor 11 mRNA in liver relative to the PBS control” value is given as 47%.
For “449708 (antisense eA*e[5mC]*eA*dG*dT*dT*dT*d[5mC]*dT*dG*dG*e[5mC]*eA*eG) [compound 449708]”, in the data set with human Factor 11 mRNA, the “Percent inhibition … at 375 nM” value was determined as 0%. Besides, the “Percent inhibition … at 750 nM” value in the data set with human Factor 11 mRNA is on record as 0%. Further, the “Percent inhibition … at 1,500 nM” value with human Factor 11 mRNA is 22%. In addition, the “Percent inhibition … at 3,000 nM” value in the data set with human Factor 11 mRNA came out at 33%. Further, the “Percent inhibition … at 6,000 nM” value in the data set on human Factor 11 mRNA is recorded as 61%. Besides, the “Percent inhibition … at 12,000 nM” value in the data set on human Factor 11 mRNA came out at 85%. This substance returned an IC50 in the data set with human Factor 11 mRNA of 4460 nM. Moreover, the “Inhibition of Factor 11 protein relative to the PBS control (percentage reduction)” value with Factor 11 protein (Day 10, plasma) worked out at 7%; with Factor 11 protein (Day 17, plasma), 15%; with Factor 11 protein (Day 24, plasma) it was 3%; in the data set on Factor 11 protein (Day 31, plasma) it was 14%; with Factor 11 protein (Day 38, plasma), 9%; in the data set on Factor 11 protein (Day 45, plasma), 2%. Also, the “Inhibition of Factor 11 protein relative to the PBS control (percentage reduction)” value with Factor 11 protein (Day 52, plasma) is on record as 6%; with Factor 11 protein (Day 55, plasma), 6%; in the data set on Factor 11 protein (Day −5, plasma), 0%; in the data set with Factor 11 protein (Day −14, plasma), 1%. This substance yielded a Concentration in data set [1] of 188 mg/mL. The substance also gave a Viscosity in data set [1] of 9 cP. In the data set with Factor 11 mRNA, the “% inhibition of Factor 11 mRNA in liver relative to the PBS control” value was found to be 46%.
On to “449709 (antisense eG*e[5mC]*eA*e[5mC]*dA*dG*dT*dT*dT*d[5mC]*dT*dG*dG*d[5mC]*eA*eG*eG*e[5mC]) [compound 449709]”, for which the “Percent inhibition … at 375 nM” value in the data set with human Factor 11 mRNA stood at 52%. Also, the “Percent inhibition … at 750 nM” value in the data set with human Factor 11 mRNA stood at 71%. Further, in the data set with human Factor 11 mRNA, the “Percent inhibition … at 1,500 nM” value stood at 80%. Also, the “Percent inhibition … at 3,000 nM” value with human Factor 11 mRNA came out at 87%. For the same substance, the “Percent inhibition … at 6,000 nM” value in the data set on human Factor 11 mRNA is given as 92%. For the same substance, the “Percent inhibition … at 12,000 nM” value in the data set with human Factor 11 mRNA stood at 95%. Also, the IC50 with human Factor 11 mRNA worked out at 380 nM. Also, the “Inhibition of Factor 11 protein relative to the PBS control (percentage reduction)” value was found to be 27% in the data set on Factor 11 protein (Day 10, plasma); 35% in the data set on Factor 11 protein (Day 17, plasma); 44% with Factor 11 protein (Day 24, plasma); 45% in the data set on Factor 11 protein (Day 31, plasma); 46% in the data set with Factor 11 protein (Day 38, plasma); 48% in the data set with Factor 11 protein (Day 45, plasma). Also, the “Inhibition of Factor 11 protein relative to the PBS control (percentage reduction)” value with Factor 11 protein (Day 52, plasma) is recorded as 47%; in the data set with Factor 11 protein (Day 55, plasma), 50%; with Factor 11 protein (Day −5, plasma) it was 0%; in the data set with Factor 11 protein (Day −14, plasma), 1%. The same substance yielded a Concentration in data set [1] of 171 mg/mL. The same substance yielded a Viscosity in data set [1] of 65 cP. Besides, the “% inhibition of Factor 11 mRNA in liver relative to the PBS control” value in the data set with Factor 11 mRNA is listed as 69%.
On to “449710 (antisense e[5mC]*eA*e[5mC]*dA*dG*dT*dT*dT*d[5mC]*dT*dG*dG*d[5mC]*eA*eG*eG) [compound 449710]”, for which the “Percent inhibition … at 375 nM” value in the data set on human Factor 11 mRNA was 2%. The “Percent inhibition … at 750 nM” value in the data set with human Factor 11 mRNA was 21%. Also, the “Percent inhibition … at 1,500 nM” value in the data set on human Factor 11 mRNA is on record as 52%. For the same substance, the “Percent inhibition … at 3,000 nM” value with human Factor 11 mRNA is 70%. The “Percent inhibition … at 6,000 nM” value with human Factor 11 mRNA worked out at 82%. For the same substance, the “Percent inhibition … at 12,000 nM” value in the data set with human Factor 11 mRNA is 87%. 1590 nM corresponded to half-maximal inhibition in the data set with human Factor 11 mRNA (IC50). Also, the “Inhibition of Factor 11 protein relative to the PBS control (percentage reduction)” value in the data set with Factor 11 protein (Day 10, plasma) worked out at 10%; in the data set with Factor 11 protein (Day 17, plasma), 14%; in the data set with Factor 11 protein (Day 24, plasma), 17%; in the data set on Factor 11 protein (Day 31, plasma) it was 25%; with Factor 11 protein (Day 38, plasma) it was 20%; with Factor 11 protein (Day 45, plasma), 23%. Also, the “Inhibition of Factor 11 protein relative to the PBS control (percentage reduction)” value turned out to be 4% with Factor 11 protein (Day 52, plasma); 24% in the data set with Factor 11 protein (Day 55, plasma); 0% in the data set on Factor 11 protein (Day −5, plasma); 1% in the data set with Factor 11 protein (Day −14, plasma). In data set [1], this substance displayed a Concentration of 186 mg/mL. The Viscosity in data set [1] is given as 7 cP. For the same substance, in the data set with Factor 11 mRNA, the “% inhibition of Factor 11 mRNA in liver relative to the PBS control” value worked out at 52%.
